Results as given in US20220213099A1, “PRODRUG COMPOUNDS” (BRISTOL-MYERS SQUIBB COMPANY, priority 2019, published 2022).
In brackets after ≈: the same amount, converted by molar mass. Counter-ions that a name gives are not always drawn. Like-named read-outs stand apart in the source and are kept apart here.

Columns and labels:
[1] = Solubility evaluation in aqueous buffer; format: physicochemical; conditions: for solubility: aqueous buffer, 25 °C, thermodynamic from solid
Method: The solid powder of an individual prodrug was equilibrated in aqueous buffers of pH 1, 4 and 6.5 at 25° C. for about 24 hours. After equilibration, the excess solid was separated by filtration using 0.45 μm membrane filter and the filtrate was collected in suitable glass vial. The filtrate was diluted appropriately using respective buffers/diluent and analyzed by a reversed phase LC method with UV detection.

[2] = Stability evaluation in aqueous buffer; format: physicochemical; conditions: about 50 μg/mL, about 15% v/v acetonitrile; for half-life: aqueous buffer, 37° C.
Method: The stability study of an individual prodrug was conducted with about 50 μg/mL solutions in aqueous buffers of pH 1 (0.1 M HCl), 4 (acetate buffer) and 6.5 (phosphate buffer) at 37° C. for 24 hours. About 15% v/v acetonitrile was used in these pH buffers as a co-solvent to obtain clear solutions of prodrugs. The sample analysis was carried out using a generic reversed phase liquid chromatographic (LC) method with UV detection. The area percent (AP) loss of the prodrug peak was quantified as a function of time. The appearance of parent peak was identified from the chromatographic retention time. The half-life (t1/2, h) of the prodrug was calculated by using a pseudo-first order equation from a AP loss vs time plot.

[3] = aqueous buffer pH 4, 25° C., about 24 hours equilibration, ditrifluoroacetate
[4] = aqueous buffer pH 6.5, 25° C., about 24 hours equilibration, ditrifluoroacetate
[5] = pH 1, simulated gastric fluid, aqueous buffer pH 1, 25° C., about 24 hours equilibration, read-out: Solubility (mg/mL) at 25° C. pH 1
[6] = pH 1, pH 1 (0.1 M HCl), read-out: Stability (t1/2, h) at 37° C. pH 1 (converted)
[7] = pH 4, pH 4 (acetate buffer), read-out: Stability (t1/2, h) at 37° C. pH 4 (converted)
[8] = pH 6.5, pH 6.5 (phosphate buffer), read-out: Stability (t1/2, h) at 37° C. pH 6.5 (converted)
[9] = pH 4, aqueous buffer, aqueous buffer pH 4, 25° C., about 24 hours equilibration, read-out: Solubility (mg/mL) at 25° C. pH 4
[10] = pH 6.5, aqueous buffer, aqueous buffer pH 6.5, 25° C., about 24 hours equilibration, read-out: Solubility (mg/mL) at 25° C. pH 6.5

Compound | Solubility (mg/mL) at 25° C. pH 4 [1, 3] | Solubility (mg/mL) at 25° C. pH 6.5 [1, 4] | solubility [1, 5] | half-life [2, 6] | half-life [2, 7] | half-life [2, 8] | Solubility (mg/mL) at 25° C. pH 1 ([1]; aqueous buffer pH 1, 25° C., about 24 hours equilibration, ditrifluoroacetate) | Stability (t1/2, h) at 37° C. pH 1 ([2]; pH 1 (0.1 M HCl)) | Stability (t1/2, h) at 37° C. pH 4 ([2]; pH 4 (acetate buffer), ditrifluoroacetate) | Stability (t1/2, h) at 37° C. pH 6.5 ([2]; pH 6.5 (phosphate buffer), ditrifluoroacetate) | solubility [1, 9] | solubility [1, 10] | pH dependence of aqueous solubility ([1]; pH of 1 versus pH of 4 or pH of 6)
Cc1c(-c2c(C(C)C)c3cc(C4CCN(CC(N)=O)CC4)ccc3n2C(=O)OC(C)OC(=O)C2(N)CC2)cn2ncnc2c1C (single isomer, unassigned) [Example 6, 1-((1-Aminocyclopropane-1-carbonyl)oxy)ethyl 5-(1-(2-amino-2-oxoethyl)piperidin-4-yl)-2-(7,8-dimethyl-[1,2,4]triazolo[1,5-a]pyridin-6-yl)-3-isopropyl-1H-indole-1-carboxylate ditrifluoroacetate] | 0.52 mg/mL | >1.22 mg/mL | > 1.32 mg/mL | > 500 h | 415 h | 108 h | – | – | – | – | – | – | –
Cc1c(-c2c(C(C)C)c3cc(C4CCN(CC(N)=O)CC4)ccc3n2C(=O)OC(C)OC(=O)C2(N)CC2)cn2ncnc2c1C (single isomer, unassigned) [Example 7, 1-((1-Aminocyclopropane-1-carbonyl)oxy)ethyl 5-(1-(2-amino-2-oxoethyl)piperidin-4-yl)-2-(7,8-dimethyl-[1,2,4]triazolo[1,5-a]pyridin-6-yl)-3-isopropyl-1H-indole-1-carboxylate ditrifluoroacetate] | >1.21 mg/mL | 0.34 mg/mL | – | – | – | – | >1.49 mg/mL | >500 h | >500 h | 193 h | – | – | –
Cc1c(-c2[nH]c3ccc(C4CC[N+](COC(=O)N(C)CCOP(=O)(O)O)(CC(N)=O)CC4)cc3c2C(C)C)cn2ncnc2c1C (single isomer, unassigned) [Example 20, 1-(2-Amino-2-oxoethyl)-4-(2-(7,8-dimethyl-[1,2,4]triazolo[1,5-a]pyridin-6-yl)-3-isopropyl-1H-indol-5-yl)-1-(((methyl(2-(phosphonooxy)ethyl)carbamoyl)oxy)methyl) piperidin-1-ium trifluoroacetate] | – | – | > 1.16 mg/mL | > 500 h | > 500 h | > 500 h | – | – | – | – | > 1.87 mg/mL | > 2.08 mg/mL | –
Cc1c(-c2[nH]c3ccc(C4CCN(CC(N)=O)CC4)cc3c2C(C)C)cn2nc[n+](COC(=O)N(C)CCOP(=O)(O)O)c2c1C (single isomer, unassigned) [Example 21, 6-(5-(1-(2-amino-2-oxoethyl)piperidin-4-yl)-3-isopropyl-1H-indol-2-yl)-7,8-dimethyl-1-(((methyl(2-(phosphonooxy)ethyl)carbamoyl)oxy)methyl)-[1,2,4]triazolo[1,5-a]pyridin-1-ium trifluoroacetate] | – | – | > 1.75 mg/mL | > 500 h | > 500 h | > 500 h | – | – | – | – | 0.25 mg/mL | 0.55 mg/mL | –
Cc1c(-c2[nH]c3ccc(C4CCN(CC(N)=O)CC4)cc3c2C(C)C)cn2ncnc2c1C [Compound A, 2-(4-(2-(7,8-dimethyl-[1,2,4]triazolo[1,5-a]pyridin-6-yl)-3-isopropyl-1H-indol-5-yl)piperidin-1-yl)acetamide, reference compound] | – | – | 1.56 mg/mL (≈ 3510 µM) | – | – | – | – | – | – | – | 0.05 mg/mL (≈ 112 µM) | < 0.01 mg/mL | higher solubility at pH of 1 than at pH of 4 or pH of 6
Cc1c(-c2c(C(C)C)c3cc(C4CCN(CC(N)=O)CC4)ccc3n2C(=O)OC[C@@H]2CCCCN2)cn2ncnc2c1C [Example 1, (S)-Piperidin-2-ylmethyl 5-(1-(2-amino-2-oxoethyl)piperidin-4-yl)-2-(7,8-dimethyl-[1,2,4]triazolo[1,5-a]pyridin-6-yl)-3-isopropyl-1H-indole-1-carboxylate] | – | – | > 1.74 mg/mL | > 500 h | > 500 h | 218 h | – | – | – | – | > 1.28 mg/mL | > 1.34 mg/mL | –
Cc1c(-c2c(C(C)C)c3cc(C4CCN(CC(N)=O)CC4)ccc3n2C(=O)OC[C@@H]2CCCCN2C(=O)OCOP(=O)(O)O)cn2ncnc2c1C [Example 2, (S)-(1-(((Phosphonooxy)methoxy)carbonyl)piperidin-2-yl)methyl 5-(1-(2-amino-2-oxoethyl)piperidin-4-yl)-2-(7,8-dimethyl-[1,2,4]triazolo[1,5-a]pyridin-6-yl)-3-isopropyl-1H-indole-1-carboxylate] | – | – | > 1.17 mg/mL | 248 h | 283 h | 267 h | – | – | – | – | 0.24 mg/mL (≈ 324 µM) | 0.43 mg/mL (≈ 581 µM) | –
Cc1c(-c2c(C(C)C)c3cc(C4CCN(CC(N)=O)CC4)ccc3n2C(=O)OC[C@@H]2CCCN2)cn2ncnc2c1C [Example 3, (S)-Pyrrolidin-2-ylmethyl 5-(1-(2-amino-2-oxoethyl)piperidin-4-yl)-2-(7,8-dimethyl-[1,2,4]triazolo[1,5-a]pyridin-6-yl)-3-isopropyl-1H-indole-1-carboxylate] | – | – | > 2.43 mg/mL | > 500 h | > 500 h | 99 h | – | – | – | – | > 2.68 mg/mL | > 2.44 mg/mL | –
Cc1c(-c2c(C(C)C)c3cc(C4CCN(CC(N)=O)CC4)ccc3n2C(=O)OC[C@@H]2CCCN2C(=O)OCOP(=O)(O)O)cn2ncnc2c1C [Example 4, (S)-(1-(((Phosphonooxy)methoxy)carbonyl)pyrrolidin-2-yl)methyl 5-(1-(2-amino-2-oxoethyl)piperidin-4-yl)-2-(7,8-dimethyl-[1,2,4]triazolo[1,5-a]pyridin-6-yl)-3-isopropyl-1H-indole-1-carboxylate] | – | – | > 1.64 mg/mL | 231 h | 257 h | 231 h | – | – | – | – | 0.91 mg/mL (≈ 1250 µM) | 0.66 mg/mL (≈ 909 µM) | –
CNCC(=O)n1c(-c2cn3ncnc3c(C)c2C)c(C(C)C)c2cc(C3CCN(CC(N)=O)CC3)ccc21 [Example 5, 2-(4-(2-(7,8-Dimethyl-[1,2,4]triazolo[1,5-a]pyridin-6-yl)-3-isopropyl-1-(methylglycyl)-1H-indol-5-yl)piperidin-1-yl)acetamide ditrifluoroacetate] | – | – | > 2.84 mg/mL | > 500 h | 233 h | 4.5 h | – | – | – | – | > 2.15 mg/mL | 1.19 mg/mL (≈ 2310 µM) | –
CNCC(=O)OCc1cccnc1N(C)C(=O)OC[N+]1(CC(N)=O)CCC(c2ccc3[nH]c(-c4cn5ncnc5c(C)c4C)c(C(C)C)c3c2)CC1 (stereo not shown) [Example 12, 1-(2-Amino-2-oxoethyl)-4-(2-(7,8-dimethyl-[1,2,4]triazolo[1,5-a]pyridin-6-yl)-3-isopropyl-1H-indol-5-yl)-1-(((methyl(3-(((methylglycyl)oxy)methyl)pyridin-2-yl)carbamoyl)oxy)methyl)piperidin-1-ium ditrifluoroacetate] | – | – | – | > 500 h | 99 h | 1.6 h | – | – | – | – | – | – | –
CNCC(=O)OCc1cccnc1N(C)C(=O)OC[n+]1cnn2cc(-c3[nH]c4ccc(C5CCN(CC(N)=O)CC5)cc4c3C(C)C)c(C)c(C)c21 [Example 13, 6-(5-(1-(2-Amino-2-oxoethyl)piperidin-4-yl)-3-isopropyl-1H-indol-2-yl)-7,8-dimethyl-1-(((methyl(3-(((methylglycyl)oxy)methyl)pyridin-2-yl)carbamoyl)oxy)methyl)-[1,2,4]triazolo[1,5-a]pyridin-1-ium tritrifluoroacetate] | – | – | – | 459 h | 99 h | 2.5 h | – | – | – | – | – | – | –
Cc1c(-c2c(C(C)C)c3cc(C4CCN(CC(N)=O)CC4)ccc3n2C(=O)OCOP(=O)(O)O)cn2ncnc2c1C [Example 16, (Phosphonooxy)methyl 5-(1-(2-amino-2-oxoethyl)piperidin-4-yl)-2-(7,8-dimethyl-[1,2,4]triazolo[1,5-a]pyridin-6-yl)-3-isopropyl-1H-indole-1-carboxylate] | – | – | – | 80 h | 7.5 h | 0.1 h | – | – | – | – | – | – | –
Cc1c(-c2c(C(C)C)c3cc(C4CCN(CC(N)=O)CC4)ccc3n2P(=O)(O)O)cn2ncnc2c1C [Example 18, (5-(1-(2-Amino-2-oxoethyl)piperidin-4-yl)-2-(7,8-dimethyl-[1,2,4]triazolo[1,5-a]pyridin-6-yl)-3-isopropyl-1H-indol-1-yl)phosphonate] | – | – | – | 6.4 h | 2.9 h | 6.3 h | – | – | – | – | – | – | –
